These results are taken from patent publication EP2975030B1, “DIHYDROPYRIDAZINE-3,5-DIONE DERIVATIVE” (Chugai Seiyaku Kabushiki Kaisha, priority 2013, dated 2014).

The test system of the assay is rat small-intestinal brush border membrane vesicles. As to the kind of experiment: Inhibitory effect on 33PO4 uptake into rat small-intestinal brush border membrane vesicles (rapid filtration method). Type of assay: biochemical, Wistar female rat. The following applies: 1 µM test compound; 33PO4 uptake into rat small-intestinal BBMVs, 60 seconds. In outline:
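Uptake was terminated by ice-cold 110 mM NaCl, 1 mM KH2PO4, 10 mM HEPES (pH 7.5) buffer and immediate suction filtration, then washing. Using rat small-intestinal BBMVs, retained 33PO4 was quantified by liquid scintillation counting as transport activity.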

In the case of `C[C@]12CCCN1N(Cc1cccc(F)c1F)C(=O)C(C(=O)Nc1ccc(Br)cn1)=C2O` [Example 78], the “Rate of uptake inhibition (%) (1 µM)” value worked out at 71%.

Take `CN1N(Cc2ccc(OCCN3CCOCC3)c(F)c2F)C(=O)C(C(=O)Nc2ccc(Cl)cc2-c2cc(C(F)(F)F)ncn2)=C(O)C12CCCC2` [Example 286]: the “Rate of uptake inhibition (%) (1 µM)” value is reported as 50%.

Take `CSc1ccc(-c2cc(C(F)(F)F)ccc2NC(=O)C2=C(O)[C@@]3(C)CCCN3N(Cc3ccc(OCCN4CCOCC4)c(F)c3F)C2=O)cn1` [Example 103]: the “Rate of uptake inhibition (%) (1 µM)” value is listed as 78%.

Take `Cc1cccc(CN2C(=O)C(C(=O)Nc3ccc(C(F)(F)F)cc3-c3cc(C(F)(F)F)ncn3)=C(O)[C@@]3(C)CCCN23)c1F` [Example 215]: the “Rate of uptake inhibition (%) (1 µM)” value worked out at 86%.

Take `CC(=O)NCCN(C)CCOc1ccc(CN2C(=O)C(C(=O)Nc3ccc(C(F)(F)F)cc3-c3cc(C(F)(F)F)ncn3)=C(O)C3(CCC3)N2C)c(F)c1F` [Example 353]: the “Rate of uptake inhibition (%) (1 µM)” value turned out to be 26%.

On to `C[C@]12CCCN1N(Cc1c(F)cc(C#CCCCCOC[C@H](O)CO)cc1F)C(=O)C(C(=O)Nc1ccc(C(F)(F)F)cc1-c1ccc(C(F)(F)F)nc1)=C2O.[Na+]` [Example 143], for which the “Rate of uptake inhibition (%) (1 µM)” value is 71%.

With `CSc1ncc(-c2cc(C(F)(F)F)ccc2NC(=O)C2=C(O)[C@@]3(C)CCCN3N(Cc3ccc(OCCN4CCOCC4)c(F)c3F)C2=O)cn1` [Example 104], the “Rate of uptake inhibition (%) (1 µM)” value is given as 73%.

As for `C[C@]12CCCN1N(Cc1ccccc1C#N)C(=O)C(C(=O)Nc1cc(F)c(Br)c(F)c1)=C2O` [Example 218], the “Rate of uptake inhibition (%) (1 µM)” value is listed as 82%.

With `Cc1c(Cl)ncnc1-c1cc(Cl)ccc1NC(=O)C1=C(O)[C@H](C(C)(C)C)N(C)N(Cc2ccc(OCCN3CCOCC3)c(F)c2F)C1=O` [Example 275], the “Rate of uptake inhibition (%) (1 µM)” value stood at 42%.

Turning to `C[C@]12CCCN1N(Cc1c(F)cccc1F)C(=O)C(C(=O)Nc1ccc(C(F)(F)F)cc1-c1cc(C(F)(F)F)ncn1)=C2O` [Example 212], the “Rate of uptake inhibition (%) (1 µM)” value is 98%.

`CN1N(Cc2ccc(OCCOCCNCC(O)CO)c(F)c2F)C(=O)C(C(=O)Nc2ccc(C(F)(F)F)cc2-c2cc(C(F)(F)F)ncn2)=C(O)C12CCCC2` (stereo not drawn) [Example 419, 7-[[4-[2-[2-(2,3-Dihydroxypropylamino)ethoxy]ethoxy]-2,3-difluorophenyl]methyl]-10-hydroxy-6-methyl-8-oxo-N-[4-(trifluoromethyl)-2-[6-(trifluoromethyl)pyrimidin-4-yl]phenyl]-6,7-diazaspiro[4.5]dec-9-ene-9-carboxamide]: the “Rate of uptake inhibition (%) (1 µM)” value came to 22%.

As for “(4aR)-1-[(2,3-Difluorophenyl)methyl]-4a-ethyl-4-hydroxy-N-[5-methyl-2-(trifluoromethyl)furan-3-yl]-2-oxo-6,7-dihydro-5H-pyrrolo[1,2-b]pyridazine-3-carboxamide [Example 10]”, the “Rate of uptake inhibition (%) (1 µM)” value is given as 37%.

For `C[C@]12CCCN1N(Cc1ccc(OCCCCCO)c(F)c1F)C(=O)C(C(=O)Nc1ccc(C(F)(F)F)cc1-c1cc(C(F)(F)F)ncn1)=C2O` [Example 162], the “Rate of uptake inhibition (%) (1 µM)” value amounted to 73%.

For `C[C@]12CCCN1N(Cc1ccc(SCCN3CCOCC3)c(F)c1F)C(=O)C(C(=O)Nc1ccc(C(F)(F)F)cc1-c1ccc(C(F)(F)F)nc1)=C2O.Cl` [Example 163, (4aR)-1-[[2,3-Difluoro-4-(2-morpholin-4-ylethylsulfanyl)phenyl]methyl]-4-hydroxy-4a-methyl-2-oxo-N-(4-(trifluoromethyl)-2-[6-(trifluoromethyl)pyridin-3-yl]phenyl)-6,7-dihydro-5H-pyrrolo[1,2-b]pyridazine-3-carboxamide hydrochloride], the “Rate of uptake inhibition (%) (1 µM)” value is 79%.

Turning to `COCCN(C)CCOCCOc1ccc(CN2C(=O)C(C(=O)Nc3ccc(C(F)(F)F)cc3-c3cc(C(F)(F)F)ncn3)=C(O)C3(CCCC3)N2C)c(F)c1F` [Example 429, 7-[[2,3-Difluoro-4-[2-[2-[2-methoxyethyl(methyl)amino]ethoxy]ethoxy]phenyl]methyl]-10-hydroxy-6-methyl-8-oxo-N-[4-(trifluoromethyl)-2-[6-(trifluoromethyl)pyrimidin-4-yl]phenyl]-6,7-diazaspiro[4.5]dec-9-ene-9-carboxamide], the “Rate of uptake inhibition (%) (1 µM)” value came to 41%.

As to `Cc1cc(NC(=O)C2=C(O)[C@@H]3CCCCN3N(Cc3cccc(F)c3)C2=O)c(C(F)(F)F)o1` [Example 16], the “Rate of uptake inhibition (%) (1 µM)” value was found to be 38%.

Turning to `COC1(C)CN(CCOc2ccc(CN3C(=O)C(C(=O)Nc4ccc(C(F)(F)F)cc4-c4cc(C(F)(F)F)ncn4)=C(O)C4(CCC4)N3C)c(F)c2F)C1` [Example 356], the “Rate of uptake inhibition (%) (1 µM)” value worked out at 58%.

On to `COCCN(C)CCNc1ccc(CN2C(=O)C(C(=O)Nc3ccc(C(F)(F)F)cc3-c3cc(C(F)(F)F)ncn3)=C(O)C3(CCCC3)N2C)c(F)c1F` [Example 417, 7-(2,3-Difluoro-4-((2-((2-methoxyethyl)(methyl)amino)ethyl)amino)benzyl)-10-hydroxy-6-methyl-8-oxo-N-(4-(trifluoromethyl)-2-(6-(trifluoromethyl)pyrimidin-4-yl)phenyl)-6,7-diazaspiro[4.5]dec-9-ene-9-carboxamide], for which the “Rate of uptake inhibition (%) (1 µM)” value is recorded as 48%.

Turning to `CN(C)S(=O)(=O)c1ccc(-c2nc(C(F)(F)F)ccc2NC(=O)C2=C(O)[C@@]3(C)CCCN3N(Cc3cccc(F)c3F)C2=O)cc1` [Example 87], the “Rate of uptake inhibition (%) (1 µM)” value worked out at 84%.

Regarding `C[C@@H]1COC[C@H](C)N1CCOc1ccc(CN2C(=O)C(C(=O)Nc3ccc(C(F)(F)F)cc3-c3cc(C(F)(F)F)ncn3)=C(O)C3(CCCC3)N2C)c(F)c1F` [Example 370], the “Rate of uptake inhibition (%) (1 µM)” value is 41%.

Take `CN1N(Cc2ccc(OCCN3CCN(CCO)CC3)c(F)c2F)C(=O)C(C(=O)Nc2ccc(C(F)(F)F)cc2-c2cc(C(F)(F)F)ncn2)=C(O)C12CCC2` [Example 360]: the “Rate of uptake inhibition (%) (1 µM)” value came to 21%.

For the compound `CN(C)S(=O)(=O)c1ccc(-c2cc(C(F)(F)F)ccc2NC(=O)C2=C(O)[C@@]3(C)CCCN3N(Cc3cccc(F)c3F)C2=O)s1` [Example 71], the “Rate of uptake inhibition (%) (1 µM)” value is recorded as 97%.

For the compound `COc1cccc(-c2cc(C(F)(F)F)ccc2NC(=O)C2=C(O)[C@@]3(C)CCCN3N(Cc3ccc(OC4CCOCC4)c(F)c3F)C2=O)c1OC` [Example 158], the “Rate of uptake inhibition (%) (1 µM)” value amounted to 84%.

As to `CN1N(Cc2ccc(OCCN3CC(F)(F)C3)c(F)c2F)C(=O)C(C(=O)Nc2ccc(C(F)(F)F)cc2-c2cc(C(F)(F)F)ncn2)=C(O)C12CCCC2` [Example 369], the “Rate of uptake inhibition (%) (1 µM)” value was found to be 43%.

Consider `COC(C)(C)CN(C)CCOc1ccc(CN2C(=O)C(C(=O)Nc3ccc(C(F)(F)F)cc3-c3cc(C(F)(F)F)ncn3)=C(O)C3(CCC3)N2C)c(F)c1F` [Example 350], for which the “Rate of uptake inhibition (%) (1 µM)” value was 45%.

On to `CN1N(Cc2ccc(OCCCOCCCO)c(F)c2F)C(=O)C(C(=O)Nc2ccc(C(F)(F)F)cc2-c2cc(C(F)(F)F)ncn2)=C(O)C12CCCC2` [Example 398], for which the “Rate of uptake inhibition (%) (1 µM)” value is on record as 34%.

With `CN1N(Cc2ccc(OCCN3CCOCC3)c(F)c2F)C(=O)C(C(=O)Nc2ccc(C(F)(F)F)cc2-c2ccc(C(F)(F)F)nc2)=C(O)C12CCCC2` [Example 287], the “Rate of uptake inhibition (%) (1 µM)” value is 47%.

Consider `C[C@]12CCCN1N(Cc1ccccc1Cl)C(=O)C(C(=O)Nc1ccc(C(F)(F)F)cc1-c1ccc(C(F)(F)F)nc1)=C2O` [Example 168], for which the “Rate of uptake inhibition (%) (1 µM)” value came out at 72%.

Consider `C[C@]12CCCN1N(Cc1cc(F)cc(F)c1)C(=O)C(C(=O)Nc1ccc(C(F)(F)F)cc1-c1cc(C(F)(F)F)ncn1)=C2O` [Example 213], for which the “Rate of uptake inhibition (%) (1 µM)” value is 79%.

Take `C[C@]12CCCN1N(Cc1cccc(F)c1F)C(=O)C(C(=O)Nc1ccc(Br)cc1)=C2O` [Example 77]: the “Rate of uptake inhibition (%) (1 µM)” value amounted to 80%.

`Cc1cc(NC(=O)C2=C(O)[C@H]3CCCCN3N(Cc3cccc(F)c3)C2=O)c(C(F)(F)F)o1` [Example 15, (4aR)-1-[(3-Fluorophenyl)methyl]-4-hydroxy-N-[5-methyl-2-(tritluoromethyl)furan-3-yl]-2-oxo-5,6,7,8-tetrahydro-4aH-pyrido[1,2-b]pyridazine-3-carboxamide]: the “Rate of uptake inhibition (%) (1 µM)” value is recorded as 42%.

In the case of `C[C@]12CCCN1N(Cc1cccc(F)c1)C(=O)C(C(=O)Nc1ccc(C(F)(F)F)cc1-c1ccc(C(F)(F)F)nc1)=C2O` [Example 206], the “Rate of uptake inhibition (%) (1 µM)” value is 76%.

For the compound `C[C@]12CCCN1N(Cc1cccc(F)c1F)C(=O)C(C(=O)Nc1ccc(Br)c(F)c1)=C2O` [Example 28], the “Rate of uptake inhibition (%) (1 µM)” value is 72%.

As for `CN1N(Cc2ccc(OCCN3CCOCC3)c(F)c2F)C(=O)C(C(=O)Nc2ccc(C(F)(F)F)cc2-c2ccc(C(F)(F)F)nc2)=C(O)C12CCC2` [Example 282], the “Rate of uptake inhibition (%) (1 µM)” value was 55%.

For `COc1cccc(CN2C(=O)C(C(=O)Nc3ccc(C(F)(F)F)cc3-c3ccc(C(F)(F)F)nc3)=C(O)[C@@]3(C)CCCN23)c1OC` [Example 175], the “Rate of uptake inhibition (%) (1 µM)” value was determined as 85%.

With `CSc1ncc(-c2cc(C(F)(F)F)ccc2NC(=O)C2=C(O)[C@@]3(C)CCCN3N(Cc3ccc(C#CCCCCC(=O)O)c(F)c3F)C2=O)cn1` [Example 118, 7-[4-[[(4aR)-4-Hydroxy-4a-methyl-3-[[2-(2-methylsulfanylpyrimidin-5-yl)-4-(trifluoromethyl)phenyl]carbamoyl)-2-oxo-6,7-dihydro-5H-pyrrolo[1,2-b]pyridazin-1-yl]methyl]-2,3-difluorophenyl]hept-6-ynoate], the “Rate of uptake inhibition (%) (1 µM)” value was found to be 81%.

`C[C@]12CCCN1N(Cc1ccc(OCCN3CCOCC3)c(F)c1F)C(=O)C(C(=O)Nc1ccc(Cl)cc1-c1ccc(C(F)(F)F)nc1)=C2O` [Example 102]: the “Rate of uptake inhibition (%) (1 µM)” value worked out at 65%.

With `C[C@]12CCCN1N(Cc1cccc(F)c1F)C(=O)C(C(=O)Nc1ccc(C(F)(F)F)cc1-c1cc(Cl)cnc1Cl)=C2O` [Example 84], the “Rate of uptake inhibition (%) (1 µM)” value is reported as 91%.

For `CN1N(Cc2cccc(F)c2F)C(=O)C(C(=O)Nc2ccc(Br)c(C(F)(F)F)n2)=C(O)C12CCCC2` [Example 263], the “Rate of uptake inhibition (%) (1 µM)” value was 66%.
